Reference: patent publication US20260076937A1, “COMPOSITION FOR PREVENTING OR TREATING AUTOIMMUNE DISEASES COMPRISING A BCAT1 INHIBITOR” (Seoul National University R&DB Foundation, priority 2024, published 2026)
Entries after “also recorded” stand apart in the source; their conditions may differ. Like-named read-outs stand apart in the source and are kept apart here. Residues, ends and D or L forms follow the SMILES beside them. *: point of attachment. Cbz = O=C(OCc1ccccc1)*

Columns and labels:
[1] = test system: TCR-stimulated human CD4+ T cells; assay: 3H-leucine uptake assay; format: cell-based; settings: BCH 50 mM, JPH203 10 μM, LβhL 400 mg/L
Procedure: After the culture medium was removed, the cells were cultured in HBSS for 10 minutes. ^3H-leucine or ^3H-methionine (Perkin Elmer, Waltham, MA) uptake assays were initiated by culturing cells for 15 min in HBSS with 0.5-1 μCi. Cells were separated with 1 M NaOH after three washes with ice-cold HBSS. Radioactivity was measured using a beta scintillation counter MicroBeta® (Perkin Elmer).

[2] = test system: HIF-1α; assay: HIF-1α immunoblot in TCR-stimulated CD4+ memory T cells; format: cell-based, human; settings: for HIF-1α expression reduced by Bi2 (effect of added substance): Bi2 plus HMB 0.4 mM, CoCl2, VH298 or MG132; for HIF-1α protein expression: TCR-stimulated CD4+ memory T cells, Bi2 10 μM, CoCl2 100 μM, VH298 100 μM, MG132 5 μM
Procedure: (§1) Cells were cultured in radioimmunoprecipitation assay (RIPA) buffer (150 mM NaCl, 10 mM Na2HPO4, pH 7.2, 1% Nonidet P-40, 0.5% deoxycholate) containing phenylmethylsulfonyl fluoride (PMSF; Millipore Sigma, Burlington, MA), EDTA, protease and phosphatase inhibitor cocktail (Thermo Fisher Scientific) to extract total protein. Proteins were separated on 8-10% SDS-polyacrylamide gels and blotted onto polyvinylidene difluoride (PVDF) membranes (Bio-Rad, Hercules, CA) followed by 5% BSA in Tris buffered saline (TBS) with 0.1% Tween 20 and blocked for 1 hour. Membranes were cultured overnight with anti-human SLC7A5, anti-BCAT, anti-phospho-p70S6K, anti-p70S6K, anti-HIF-1α (all provided by Cell Signaling Technology, Danvers, MA) primary antibodies at 4° C., followed by culture with HRP-conjugated secondary antibodies for 1 hour at room temperature. Membranes were developed using SuperSignal West Femto Maximum Sensitivity Substrate or SuperSignal West Pico PLUS Chemiluminescent Substrate system (Thermo Fisher Scientific).

[3] = test system: TCR-stimulated human CD4+ memory T cells; assay: Cytokine ELISA of culture supernatants, CD4+ memory T cells; format: cell-based; settings: for IFN-γ production by CD4+ memory T cells / IL-17A production by CD4+ memory T cells: TCR stimulation 3 days, Bi2 10 μM, JPH203 10 μM, LβhL 400 mg/L; for IFN-γ production by CD4+ memory T cells: HMB 0.4 mM, VH298 100 nM; for IL-17A production by CD4+ memory T cells: statin 10 μM
Procedure: The study protocol was reviewed and approved by the Institutional Review Board (IRB) of Seoul National University Hospital. Peripheral blood was drawn from healthy controls (HC) after obtaining written consent from study participants, and all experiments were performed according to approved guidelines. Peripheral blood mononuclear cells (PBMCs) were isolated from peripheral blood using density gradient centrifugation (Biocoll separation solution; BIOCHROM Inc., Cambridge, UK). Total CD4^+ T cells, naive T cells and memory CD4^+ T-cells were isolated in a negative selection manner from CD14^+ monocyte depleted PBMCs using the MojoSort™ Human Total CD4^+ T-Cells, CD4^+ naive T-cells and CD4^+ memory T-cell isolation kit (BioLegend, San Diego, Calif.). Purified T cells were cultured in RPMI 1640 medium (hereinafter, “complete RPMI 1640”) supplemented with 10% fetal bovine serum (FBS), 1% penicillin/streptomycin, and 1% L-glutamine. Cells were stimulated with anti-CD3/CD28-coated microbeads (1:10 ratio, Dynabeads T-Activator CD3/CD28, Thermo Fisher Scientific, Waltham, MA) in the presence of designated chemical inhibitors or reagents including 2-amino-2-norbornanecarboxylic acid (BCH), JPH203, acetate, MG132, VH298, cobalt chloride (CoCl2), cycloheximid (CHX) (all provided by Sigma-Aldrich, St. Louis, MO), BCAT1 inhibitor 2 (Bi2: provided by Cayman Chemical, Ann Arbor, MI), 3-hydroxy-3-methylbutyric acid (HMB; provided by Thermo Fisher Scientific, Waltham, MA), and L-β-homoleucine (LβhL; provided by Santa Cruz Biotechnology, Heidelberg, Germany). In some experiments, a customized medium depleted of five essential amino acids (leucine, valine, isoleucine, phenylalanine, methionine) was used (Welgene, Gyeongsan, South Korea). All amino acids used (L-leucine, L-valine, L-isoleucine, L-phenylalanine, L-methionine) were purchased from Sigma-Aldrich.
IL-17A and IFN-γ amounts in culture supernatants were quantified using commercially available human ELISA kits (IL-17A ELISA kit by eBioscience and human IFN-γ ELISA MAX Deluxe by BioLegend) according to the manufacturer's instructions. Light density was measured using an Infinite M200 instrument (Tecan, Männedorf, Switzerland).

[4] = oral administration, healthy adults; cited from earlier work
[5] = test system: mTORC1; assay: Phospho-p70-S6K immunoblot (mTORC1 activity) in CD4+ memory T cells; format: cell-based, human; settings: HMB 0.4 mM, TCR stimulation 1 hour
Procedure: as §1

[6] = test system: human CD4+ memory T cells; assay: Cholesterol analysis in cell lysates; format: cell-based; settings: Bi2 10 μM plus HMB 0.4 mM
Procedure: Total cholesterol amount in cultured cells was determined using a fluorometric Amplex™ Red Cholesterol Assay Kit (Thermo Fisher Scientific) according to the manufacturer's instructions.

[7] = test system: HIF-1α; assay: RT-qPCR of HIF-1α and HIF-1α target genes in CD4+ memory T cells; format: cell-based, human; settings: HMB 0.4 mM
Procedure: Total RNA was prepared using TRIzol reagent (Life Technologies, Grand Island, NY), followed by cDNA synthesis (Promega, Madison, WI), followed by real-time quantitative RT-PCR with a CFX system (Bio-Rad, Hercules, CA) using SensiFAST SYBR® Lo-ROX (Bioline, London. UK). Gene expression levels were normalized for […] expression using the comparative CT method (ΔΔCT).

[8] = test system: human CD4+ naive and memory T cells; assay: CFSE dilution proliferation assay; format: cell-based; settings: anti-CD3/CD28 microbeads; Bi2 10 μM, JPH203 10 μM, LβhL 400 mg/L
Procedure: To analyze T cell proliferative capacity, purified isolated human CD4+ T cells were labeled with 1 μM carboxyfluorescein succinimidyl ester (CFSE; Invitrogen, Waltham, MA, USA) and then stimulated with anti-CD3/CD28 antibody coated microbeads for 4 days at 37° C. Cells were stained with 7AAD (BD Biosciences) for 10 minutes to distinguish dead cells and the extent of CFSE dilution in 7AAD-cells was measured by BD LSRFortessa to analyze proliferative capacity. Antibodies listed in Table 2 and previously known BD LSRFortessa cell analyzers were used.

[9] = test system: TCR-stimulated human CD4+ naive T cells; assay: Cytokine ELISA of culture supernatants, CD4+ naive T cells; format: cell-based; settings: TCR stimulation 3 days
[10] = test system: EAE mice; assay: Experimental autoimmune encephalomyelitis (EAE) model; format: in vivo, mouse
[11] = Bi2 10 μM plus acetate, HMB or VH298, 3 days
[12] = Bi2 10 mg/kg or LβhL 1 g/kg i.p.

Q: For NC1(C(=O)O)CC2CCC1C2 (centres unmarked) [BCH, 2-amino-2-norbornanecarboxylic acid], which 3H-leucine uptake [1] is on record?
A: greatly reduced

Q: For [Cl][Co][Cl] [CoCl2, cobalt chloride], which “HIF-1α expression reduced by Bi2 (effect of added substance)” value (shortened to “HIF-1α expression reduced by Bi2”) [2] is on record?
A: none of these inhibitors affected

Q: What about the HIF-1α protein expression [2] of the same compound?
A: accumulation of HIF-1α

Q: With CC(C)(O)CC(=O)O [HMB, 3-hydroxy-3-methylbutyric acid] as the compound, how does the “IL-17A production in Bi2-treated CD4+ memory T cells (effect of added substance)” value [3, 11] read?
A: partially reversed; also recorded: resolved

Q: And the “IFN-γ production by CD4+ memory T cells” value [3]?
A: not affected; also recorded: did not affect

Q: And the plasma half-life [4]?
A: about 2.5 hours

Q: What about the plasma level achievable [4] of the same compound?
A: 400 µM

Q: And the “time to peak plasma level” value [4]?
A: 60 to 120 min

Q: And the “inhibition of mTORC1 activity by Bi2 (effect of HMB supplementation)” value [5]?
A: time dependently counteracted

Q: What about the “cholesterol in Bi2-treated cells (effect of HMB supplementation)” value [6] of the same compound?
A: inhibited; also recorded: decreased

Q: What about the HIF-1α degradation rate ([2]; 24 h Bi2 pretreatment, cycloheximide chase, with or without HMB) of the same compound?
A: did not affect

Q: And the “HIF-1α expression reduced by Bi2” value [2]?
A: abrogates this attenuation; also recorded: reversed; also recorded: increased

Q: What about the “Bi2-reduced HIF-1α mRNA (effect of HMB supplementation)” value [7] of the same compound?
A: rapidly abolished

Q: What about the “Bi2-reduced SCL2A1, LDHA and PGK1 mRNA (effect of HMB supplementation)” value ([7]; 72 hours of TCR stimulation) of the same compound?
A: eliminated

Q: Which results are given for Nc1cc(COc2c(Cl)cc(C[C@H](N)C(=O)O)cc2Cl)c2oc(-c3ccccc3)nc2c1 [JPH203]?
A: IFN-γ production by CD4+ memory T cells [3]: decreased significantly; IL-17A production by CD4+ memory T cells [3]: decreased significantly; 3H-leucine uptake [1]: greatly reduced; proliferation (CFSE dilution) [8]: completely blocked; IL-2 production by CD4+ naive T cells [9]: not affected

Q: With CC(C)C[C@H](N)CC(=O)O [LβhL, L-β-homoleucine] as the compound, how does the “IL-17A production by CD4+ memory T cells” value [3] read?
A: preferentially reduced; also recorded: attenuates

Q: And the 3H-leucine uptake [1]?
A: competitively inhibited

Q: And the “proliferation (CFSE dilution)” value [8]?
A: did not affect

Q: What about the “CD4+ T-cells producing IL-17A in spinal cord infiltrates and draining LN” value [10, 12] of the same compound?
A: significantly reduced

Q: What about the “HIF-1α expression in CD4+ T-cells of spinal cord (intracellular staining)” value [10, 12] of the same compound?
A: decreased

Q: What about the “cell infiltration in spinal cord” value [10, 12] of the same compound?
A: significantly lower

Q: And the “nerve damage, spinal cord histology” value [10, 12]?
A: significantly lower

Q: What about the “EAE clinical score / severity” value ([10]; i.p. three times a week for 14 days, Bi2 10 mg/kg, LβhL 1 g/kg) of the same compound?
A: attenuated; also recorded: improves EAE induction

Q: For CC(C)C[C@@H](C=O)NC(=O)[C@H](CC(C)C)NC(=O)[C@H](CC(C)C)NC(=O)OCc1ccccc1 [MG132] (Cbz-Leu-Leu-Leu-aldehyde), which “HIF-1α expression reduced by Bi2” value [2] is on record?
A: none of these inhibitors affected

Q: What about the HIF-1α protein expression [2] of the same compound?
A: accumulation of HIF-1α

Q: Which results are given for Cc1ncsc1-c1ccc(CNC(=O)[C@@H]2C[C@@H](O)CN2C(=O)[C@@H](NC(=O)C2(C#N)CC2)C(C)(C)C)cc1 [VH298]?
A: IL-17A production in Bi2-treated CD4+ memory T cells (effect of added substance) [3]: restores; also recorded: fully restored; IFN-γ production by CD4+ memory T cells [3]: did not affect; HIF-1α expression reduced by Bi2 (effect of added substance) [2]: none of these inhibitors affected; HIF-1α protein expression [2]: accumulation of HIF-1α

Q: For CC(=O)O [acetate], which “IL-17A production in Bi2-treated CD4+ memory T cells (effect of added substance)” value [3, 11] is on record?
A: dose-dependently reduced

Q: What about the “IFN-γ production in Bi2-treated CD4+ memory T cells (effect of added substance)” value ([3]; Bi2 10 μM plus acetate, 3 days) of the same compound?
A: upregulated
